pEC50: −log10 of the molar value. Activity calls are given as the source filed them. The calls are words filed in the database; no cut-off is given here.
Columns and labels:
Assay type in all cases: cell-based
Toll-like receptor 2 [1] = molecular target: T1, Toll-like receptor 2 (Homo sapiens, UniProt O60603); test: Agonist activity at human TLR2 expressed in HEK-Blue cells harboring NFkB promoter-driven secreted alkaline phosphatase assessed as induction of NFkB after 12 hrs by spectrophotometric assay
T1 sequence (O60603 whole entry): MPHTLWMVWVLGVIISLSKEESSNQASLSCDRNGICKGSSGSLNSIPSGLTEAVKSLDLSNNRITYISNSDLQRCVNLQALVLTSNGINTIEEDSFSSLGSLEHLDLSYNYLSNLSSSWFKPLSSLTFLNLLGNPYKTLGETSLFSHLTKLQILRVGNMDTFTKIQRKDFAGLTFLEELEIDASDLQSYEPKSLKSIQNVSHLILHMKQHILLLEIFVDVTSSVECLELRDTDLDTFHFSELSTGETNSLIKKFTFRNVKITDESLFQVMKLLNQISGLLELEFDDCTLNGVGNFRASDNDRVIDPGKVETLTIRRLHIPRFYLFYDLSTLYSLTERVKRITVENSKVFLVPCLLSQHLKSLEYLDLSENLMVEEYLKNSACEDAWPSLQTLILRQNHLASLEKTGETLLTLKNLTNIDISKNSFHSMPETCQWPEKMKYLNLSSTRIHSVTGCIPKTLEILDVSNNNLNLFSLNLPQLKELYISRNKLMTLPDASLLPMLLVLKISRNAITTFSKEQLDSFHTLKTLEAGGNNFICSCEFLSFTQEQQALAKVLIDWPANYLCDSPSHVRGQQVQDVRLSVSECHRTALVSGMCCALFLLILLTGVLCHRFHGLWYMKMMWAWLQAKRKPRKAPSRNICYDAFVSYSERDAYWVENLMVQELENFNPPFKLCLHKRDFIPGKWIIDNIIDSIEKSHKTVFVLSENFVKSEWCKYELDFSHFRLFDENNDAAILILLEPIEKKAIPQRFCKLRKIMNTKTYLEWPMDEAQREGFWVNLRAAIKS

Toll-like receptor 2 [2] = molecular target: T1, Toll-like receptor 2; test: Agonist activity at human TLR2 expressed in HEK cells assessed as induction of MCP1 by ELISA
Toll-like receptor 2 [3] = molecular target: T1, Toll-like receptor 2; test: Agonist activity at human TLR2 expressed in HEK cells assessed as induction of MIP1alpha level
Toll-like receptor 2 [4] = molecular target: T1, Toll-like receptor 2; test: Agonist activity at human TLR2 expressed in human THP1-Blue cells harboring NFkB promoter-driven secreted alkaline phosphatase assessed as induction of NFkB after 12 hrs co-treated with PAM2CSK4 by spectrophotometric assay
Toll-like receptor 2 [5] = molecular target: T1, Toll-like receptor 2; test: Agonist activity at human TLR2 expressed in HEK cells assessed as induction of MIP1beta level

Row | Compound | Activity (Toll-like receptor 2 [1]) | also measured
1 | CC1CCc2cc(F)cc3c(O)c(C(=O)NCc4cccs4)c(=O)n1c23 (configuration not stated) | inactive | –
2 | CC1CCc2cc(F)cc3c(O)c(C(=O)NCc4cccnn4)c(=O)n1c23 (configuration not stated) | inactive | –
3 | CC1CCc2cc(F)cc3c(O)c(C(=O)NCC4CCCCN4)c(=O)n1c23 (configuration not stated) | inactive | –
4 | CC1CCc2cc(F)cc3c(O)c(C(=O)NCCc4cccnc4)c(=O)n1c23 (configuration not stated) | – | pEC50 (Toll-like receptor 2 [2]): 5.73; pEC50 (Toll-like receptor 2 [1]): 5.87
5 | CC1CCc2cc(F)cc3c(O)c(C(=O)NCC4CCCNC4)c(=O)n1c23 (configuration not stated) | inactive | –
6 | CC1CCc2cc(F)cc3c(O)c(C(=O)NCc4ccnn4C)c(=O)n1c23 (configuration not stated) | inactive | –
7 | Cc1ccc(S(=O)(=O)N2CCC[C@H]2C(=O)N2c3ccc(F)cc3CC[C@@H]2C)cc1 | Active | –
8 | CC1CCc2cc(F)cc3c(O)c(C(=O)NCc4ccc5c(c4)OCO5)c(=O)n1c23 (configuration not stated) | inactive | –
9 | CC1CCc2cc(F)cc3c(O)c(C(=O)NCc4cccc(C(N)=O)c4)c(=O)n1c23 (configuration not stated) | inactive | –
10 | CC1CCc2cc(F)cc3c(O)c(C(=O)NCc4ccsc4)c(=O)n1c23 (configuration not stated) | inactive | –
11 | Cc1nnc(CNC(=O)c2c(O)c3cc(F)cc4c3n(c2=O)C(C)CC4)o1 (configuration not stated) | inactive | –
12 | Cc1cc(CNC(=O)c2c(O)c3cc(F)cc4c3n(c2=O)C(C)CC4)no1 (configuration not stated) | inactive | –
13 | Cc1ccncc1CNC(=O)c1c(O)c2cc(F)cc3c2n(c1=O)C(C)CC3 (configuration not stated) | – | pEC50 (Toll-like receptor 2 [1]): 5.84
14 | Cc1nn(C)cc1CNC(=O)c1c(O)c2cc(F)cc3c2n(c1=O)C(C)CC3 (configuration not stated) | inactive | –
15 | CC1CCc2cc(F)cc3c(O)c(C(=O)NCc4cncnc4)c(=O)n1c23 (configuration not stated) | inactive | –
16 | CC1CCc2cc(F)cc3c(O)c(C(=O)NCc4cncc(F)c4)c(=O)n1c23 (configuration not stated) | – | pEC50 (Toll-like receptor 2 [2]): 5.34; pEC50 (Toll-like receptor 2 [1]): 6.00
17 | CC1CCc2cc(F)cc3c(O)c(C(=O)NCc4cc5ccccc5[nH]4)c(=O)n1c23 (configuration not stated) | inactive | –
18 | CC1CCc2cc(F)cc3c(O)c(C(=O)Nc4cccnc4)c(=O)n1c23 (configuration not stated) | inactive | –
19 | CC1CCc2cc(F)cc3c(O)c(C(=O)NCc4cnn(C)c4)c(=O)n1c23 (configuration not stated) | inactive | –
20 | CC1CCc2cc(F)cc3c(O)c(C(=O)NCC4CCN(C)C4)c(=O)n1c23 (configuration not stated) | inactive | –

Row | Compound | Activity (Toll-like receptor 2 [1]) | also measured
21 | CC1CCc2cc(F)cc3c(O)c(C(=O)NCC4CNCCO4)c(=O)n1c23 (configuration not stated) | inactive | –
22 | C[C@H]1CCc2cc(F)cc3c(O)c(C(=O)NCc4cncc(F)c4)c(=O)n1c23 | Active | Activity (Toll-like receptor 2 [3]): Active; Activity (Toll-like receptor 2 [2]): Active; Activity (Toll-like receptor 2 [4]): Active; Activity (Toll-like receptor 2 [5]): Active
23 | CC1CCc2cc(F)cc3c(O)c(C(=O)NCc4ccc(N)nc4)c(=O)n1c23 (configuration not stated) | – | pEC50 (Toll-like receptor 2 [2]): 5.12; pEC50 (Toll-like receptor 2 [1]): 6.49
24 | CC1CCc2cc(F)cc3c(O)c(C(=O)NCc4cnc5ccccc5c4)c(=O)n1c23 (configuration not stated) | inactive | –
25 | CC1CCc2cc(F)cc3c(O)c(C(=O)NCC4CCNCC4)c(=O)n1c23 (configuration not stated) | inactive | –
26 | CC1CCc2cc(F)cc3c(O)c(C(=O)NCc4nc5ccccc5n4C)c(=O)n1c23 (configuration not stated) | inactive | –
27 | C[C@@H]1CCc2cc(F)ccc2N1 | Active | –
28 | CC1CCc2cc(F)cc3c(O)c(C(=O)NCc4cccnc4)c(=O)n1c23 (configuration not stated) | – | pEC50 (Toll-like receptor 2 [2]): 5.87; pEC50 (Toll-like receptor 2 [1]): 6.52
29 | CC1CCc2cc(F)cc3c(O)c(C(=O)NCC4CCOC4)c(=O)n1c23 (configuration not stated) | inactive | –
30 | C[C@H]1CCc2cc(F)ccc2N1 | Active | –
31 | CC1CCc2cc(F)cc3c(O)c(C(=O)NCc4cccnc4N(C)C)c(=O)n1c23 (configuration not stated) | – | pEC50 (Toll-like receptor 2 [2]): 5.51; pEC50 (Toll-like receptor 2 [1]): 5.49
32 | CC1CCc2cc(F)cc3c(O)c(C(=O)NCc4ccc5c(c4)OCCO5)c(=O)n1c23 (configuration not stated) | inactive | –
33 | CC1CCc2cc(F)cc3c(O)c(C(=O)NCC4CCCN(C)C4)c(=O)n1c23 (configuration not stated) | inactive | –
34 | CC1CCc2cc(F)cc3c(O)c(C(=O)NCc4ccc(Cl)nc4)c(=O)n1c23 (configuration not stated) | – | pEC50 (Toll-like receptor 2 [1]): 5.30
35 | CC1CCc2cc(F)cc3c(O)c(C(=O)NCc4ccc(N(C)C)nc4)c(=O)n1c23 (configuration not stated) | inactive | –
36 | CC1CCc2cc(F)cc3c(O)c(C(=O)NCCn4ccnc4)c(=O)n1c23 (configuration not stated) | inactive | –
37 | CC1CCc2cc(F)cc3c(O)c(C(=O)NC4CCc5ncccc54)c(=O)n1c23 (configuration not stated) | – | pEC50 (Toll-like receptor 2 [1]): 5.52
38 | Cc1ccc(S(=O)(=O)N2CCC[C@H]2C(=O)N2c3ccc(F)cc3CC[C@H]2C)cc1 | Active | –
39 | CC1CCc2cc(F)cc3c(O)c(C(=O)NCc4nccn4C)c(=O)n1c23 (configuration not stated) | inactive | –

The next lines start with results.

Row | Activity (Toll-like receptor 2 [1]) | Compound | also measured
40 | inactive | CC1CCc2cc(F)cc3c(O)c(C(=O)NCc4n[nH]c5ccccc45)c(=O)n1c23 (configuration not stated) | –
41 | Active | C[C@H]1CCc2cc(F)cc3c(O)c(C(=O)NCc4ccc(N)nc4)c(=O)n1c23 | Activity (Toll-like receptor 2 [3]): Active; Activity (Toll-like receptor 2 [2]): Active; Activity (Toll-like receptor 2 [4]): Active; Activity (Toll-like receptor 2 [5]): Active
42 | inactive | CC1CCc2cc(F)cc3c(O)c(C(=O)NCc4ccnc5[nH]ccc45)c(=O)n1c23 (configuration not stated) | –
43 | inactive | CC1CCc2cc(F)cc3c(O)c(C(=O)NCc4ccnnc4)c(=O)n1c23 (configuration not stated) | –
44 | inactive | CC1CCc2cc(F)cc3c(O)c(C(=O)NCc4ccccn4)c(=O)n1c23 (configuration not stated) | –
45 | Active | C[C@H]1CCc2cc(F)cc3c(O)c(C(=O)NCc4cccnc4)c(=O)n1c23 | Activity (Toll-like receptor 2 [3]): Active; Activity (Toll-like receptor 2 [2]): Active; Activity (Toll-like receptor 2 [4]): Active; Activity (Toll-like receptor 2 [5]): Active
46 | inactive | CC1CCc2cc(F)cc3c(O)c(C(=O)NCc4cccc5cc[nH]c45)c(=O)n1c23 (configuration not stated) | –
47 | inactive | CC1CCc2cc(F)cc3c(O)c(C(=O)NCc4cccc5ncccc45)c(=O)n1c23 (configuration not stated) | –
48 | inactive | CC1CCc2cc(F)cc3c(O)c(C(=O)NCc4nc5ccccc5[nH]4)c(=O)n1c23 (configuration not stated) | –
49 | inactive | CC1CCc2cc(F)cc3c(O)c(C(=O)NCc4ccc5[nH]ccc5c4)c(=O)n1c23 (configuration not stated) | –
50 | inactive | CC1CCc2cc(F)cc3c(O)c(C(=O)NCc4ccno4)c(=O)n1c23 (configuration not stated) | –
51 | inactive | COc1cc(CNC(=O)c2c(O)c3cc(F)cc4c3n(c2=O)C(C)CC4)ccn1 (configuration not stated) | –
52 | inactive | CC1CCc2cc(F)cc3c(O)c(C(=O)NCc4cccc5[nH]ccc45)c(=O)n1c23 (configuration not stated) | –
53 | inactive | CC1CCc2cc(F)cc3c(O)c(C(=O)NCc4ccncc4)c(=O)n1c23 (configuration not stated) | –
54 | Active | C[C@@H]1CCc2cc(F)cc3c(O)c(C(=O)NCc4ccc(N)nc4)c(=O)n1c23 | –
55 | Active | C[C@@H]1CCc2cc(F)cc3c(O)c(C(=O)NCc4cccnc4)c(=O)n1c23 | –

Reference: ChEMBL document CHEMBL4308923, “Identification of Human Toll-like Receptor 2-Agonistic Activity in Dihydropyridine-Quinolone Carboxamides” (ACS Med Chem Lett, 2019)
